The text below walks through data of patent US20250145589A1, “PYRIDINE DERIVATIVE AND USE THEREOF” (SICHUAN HUIYU PHARMACEUTICAL CO., LTD., priority 2021, published 2025).

For one experiment, the target named is PI3Kα (Homo sapiens (Human), UniProt P42336). Kind of experiment: Inhibition of PI3Kα efficacy assay (ADP-Glo kinase assay). The class given is biochemical. Particulars: read-out: PI3Kα inhibitory activity (IC50). The gist of the method:
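Eight five-fold dilutions of compound (2 mM DMSO stock) tested; kinase reaction with PI and ATP ran 60 min at RT, followed by ADP-Glo and detection reagent steps of 40 min each. Four-parameter logistic fitting gave IC50 values.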

The target of the next experiment is PI3Kδ (Homo sapiens (Human), UniProt O00329). Nature of the experiment: Inhibition of PI3Kδ efficacy assay (ADP-Glo kinase assay). The class given is biochemical. Particulars: read-out: PI3Kδ inhibitory activity (IC50). The gist of the method:
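Luminescent ADP-Glo readout of PI3Kδ: after a 60 min RT reaction with PI/ATP substrate, ATP depletion (40 min) and ADP detection (40 min) steps followed. Compounds tested as eight five-fold serial dilutions; inhibition rates fitted to log(inhibitor) vs. response, variable slope, for IC50.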

The target of another experiment is KRAS^G12C-SOS1 (Homo sapiens (Human), UniProt P01116, G12C). Nature of the experiment: HTRF KRAS G12C/SOS1 binding assay. As to conditions: Table 5. The gist of the method:
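Compound was serially diluted five-fold over eight points, with a 2 mM DMSO stock. After anti-tag-Tb3+ and anti-tag-XL665 were added, plates were incubated 3 h at 4 °C and read by HTRF (ex 337 nm, em 620/665 nm ratio). IC50 values come from four-parameter variable-slope fits.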
For orientation: TR-FRET usually uses a lanthanide donor and a delayed reading to cut background.

The test system of experiment [1] is MIA PaCa-2 cells (KRAS G12C mutant). Kind of experiment: MIA PaCa-2 cell anti-proliferation (CellTiter-Glo). As to conditions: Homo sapiens, 72 h; MIA Paca-2 cells, 3 days, Table 7; read-out: MIA PaCa-2 (IC50). The class given is cell-based. The gist of the method: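 Viable-cell luminescence (CellTiter-Glo, ≥30 min at 25 °C) measured after a 3-day, 37 °C exposure to compounds at 9 points, 4-fold spaced, in DMEM containing 10% FBS plus 2.5% horse serum. IC50 derived versus no-inhibitor wells.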
Background: In ATP-based viability assays light output follows the ATP content of the culture.

Experiment [2] has as its system NCI-H358-AMGR drug-resistant cell line. Kind of experiment: NCI-H358-AMGR drug-resistant cell proliferation inhibitory activity test. Particulars: 72 h; NCI-H358-AMGR drug-resistant cells, 3 days incubation, CellTiter-Glo. The class given is cell-based. The gist of the method: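 Luminescent CellTiter-Glo read-out after 3-day, 37° C compound exposure (8 points, 5-fold series) of AMG510-resistant NCI-H358 cells plated at 4×10^3 per well.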

Like-named read-outs stand apart in the source and are kept apart here.

KRAS^G12C-SOS1, sequence (P01116-2 other isoform, or with tags, fused parts or gaps G12C): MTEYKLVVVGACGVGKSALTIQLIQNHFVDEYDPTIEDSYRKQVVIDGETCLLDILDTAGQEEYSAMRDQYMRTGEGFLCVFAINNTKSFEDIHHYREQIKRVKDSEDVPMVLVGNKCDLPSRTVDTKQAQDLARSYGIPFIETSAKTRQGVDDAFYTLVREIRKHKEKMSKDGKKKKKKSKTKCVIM
PI3Kδ, sequence (O00329 whole entry): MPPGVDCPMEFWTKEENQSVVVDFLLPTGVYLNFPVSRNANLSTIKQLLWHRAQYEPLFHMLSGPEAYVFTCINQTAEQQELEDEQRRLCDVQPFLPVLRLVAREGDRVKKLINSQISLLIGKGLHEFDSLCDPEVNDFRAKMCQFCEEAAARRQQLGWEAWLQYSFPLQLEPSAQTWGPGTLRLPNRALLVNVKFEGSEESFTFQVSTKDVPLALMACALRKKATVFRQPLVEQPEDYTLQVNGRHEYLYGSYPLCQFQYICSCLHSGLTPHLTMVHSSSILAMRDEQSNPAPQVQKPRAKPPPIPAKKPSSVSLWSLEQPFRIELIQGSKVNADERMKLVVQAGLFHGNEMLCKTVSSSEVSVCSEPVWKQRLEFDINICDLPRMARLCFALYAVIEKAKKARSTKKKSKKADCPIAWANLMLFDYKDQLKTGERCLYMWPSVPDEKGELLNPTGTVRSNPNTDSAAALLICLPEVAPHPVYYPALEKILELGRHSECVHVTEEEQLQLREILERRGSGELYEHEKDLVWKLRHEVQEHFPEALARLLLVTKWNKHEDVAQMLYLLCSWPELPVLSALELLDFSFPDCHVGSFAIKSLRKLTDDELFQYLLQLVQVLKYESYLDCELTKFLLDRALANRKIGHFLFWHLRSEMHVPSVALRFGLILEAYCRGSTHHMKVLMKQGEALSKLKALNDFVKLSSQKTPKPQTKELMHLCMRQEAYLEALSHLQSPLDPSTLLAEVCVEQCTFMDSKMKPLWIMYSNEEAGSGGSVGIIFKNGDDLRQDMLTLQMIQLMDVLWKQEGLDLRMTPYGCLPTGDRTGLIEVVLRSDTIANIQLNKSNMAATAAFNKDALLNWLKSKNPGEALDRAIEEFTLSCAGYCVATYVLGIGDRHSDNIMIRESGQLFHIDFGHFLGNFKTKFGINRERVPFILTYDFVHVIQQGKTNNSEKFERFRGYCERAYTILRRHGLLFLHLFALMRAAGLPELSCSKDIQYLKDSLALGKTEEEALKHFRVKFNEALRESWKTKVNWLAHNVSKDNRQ
PI3Kδ, sequence (P27986 whole entry partner): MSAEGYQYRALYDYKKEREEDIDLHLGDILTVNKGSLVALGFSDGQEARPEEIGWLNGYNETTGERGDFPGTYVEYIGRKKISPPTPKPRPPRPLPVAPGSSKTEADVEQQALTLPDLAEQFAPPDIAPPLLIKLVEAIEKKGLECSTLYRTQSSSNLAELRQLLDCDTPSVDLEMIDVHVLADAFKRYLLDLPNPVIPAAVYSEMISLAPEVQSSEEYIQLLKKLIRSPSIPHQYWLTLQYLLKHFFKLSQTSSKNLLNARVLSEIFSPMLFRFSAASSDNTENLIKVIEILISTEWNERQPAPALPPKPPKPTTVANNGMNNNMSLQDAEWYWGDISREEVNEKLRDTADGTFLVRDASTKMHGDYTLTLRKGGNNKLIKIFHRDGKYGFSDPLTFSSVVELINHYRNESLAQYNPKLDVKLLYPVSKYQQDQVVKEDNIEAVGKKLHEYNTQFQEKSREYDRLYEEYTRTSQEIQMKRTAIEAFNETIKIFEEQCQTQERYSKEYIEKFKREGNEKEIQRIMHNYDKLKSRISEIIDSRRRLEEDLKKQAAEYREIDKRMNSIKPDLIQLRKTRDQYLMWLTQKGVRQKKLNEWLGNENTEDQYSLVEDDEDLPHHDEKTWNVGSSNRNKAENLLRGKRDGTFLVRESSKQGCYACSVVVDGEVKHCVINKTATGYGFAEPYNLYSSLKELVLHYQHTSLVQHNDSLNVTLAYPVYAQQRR
PI3Kα, sequence (P42336 whole entry): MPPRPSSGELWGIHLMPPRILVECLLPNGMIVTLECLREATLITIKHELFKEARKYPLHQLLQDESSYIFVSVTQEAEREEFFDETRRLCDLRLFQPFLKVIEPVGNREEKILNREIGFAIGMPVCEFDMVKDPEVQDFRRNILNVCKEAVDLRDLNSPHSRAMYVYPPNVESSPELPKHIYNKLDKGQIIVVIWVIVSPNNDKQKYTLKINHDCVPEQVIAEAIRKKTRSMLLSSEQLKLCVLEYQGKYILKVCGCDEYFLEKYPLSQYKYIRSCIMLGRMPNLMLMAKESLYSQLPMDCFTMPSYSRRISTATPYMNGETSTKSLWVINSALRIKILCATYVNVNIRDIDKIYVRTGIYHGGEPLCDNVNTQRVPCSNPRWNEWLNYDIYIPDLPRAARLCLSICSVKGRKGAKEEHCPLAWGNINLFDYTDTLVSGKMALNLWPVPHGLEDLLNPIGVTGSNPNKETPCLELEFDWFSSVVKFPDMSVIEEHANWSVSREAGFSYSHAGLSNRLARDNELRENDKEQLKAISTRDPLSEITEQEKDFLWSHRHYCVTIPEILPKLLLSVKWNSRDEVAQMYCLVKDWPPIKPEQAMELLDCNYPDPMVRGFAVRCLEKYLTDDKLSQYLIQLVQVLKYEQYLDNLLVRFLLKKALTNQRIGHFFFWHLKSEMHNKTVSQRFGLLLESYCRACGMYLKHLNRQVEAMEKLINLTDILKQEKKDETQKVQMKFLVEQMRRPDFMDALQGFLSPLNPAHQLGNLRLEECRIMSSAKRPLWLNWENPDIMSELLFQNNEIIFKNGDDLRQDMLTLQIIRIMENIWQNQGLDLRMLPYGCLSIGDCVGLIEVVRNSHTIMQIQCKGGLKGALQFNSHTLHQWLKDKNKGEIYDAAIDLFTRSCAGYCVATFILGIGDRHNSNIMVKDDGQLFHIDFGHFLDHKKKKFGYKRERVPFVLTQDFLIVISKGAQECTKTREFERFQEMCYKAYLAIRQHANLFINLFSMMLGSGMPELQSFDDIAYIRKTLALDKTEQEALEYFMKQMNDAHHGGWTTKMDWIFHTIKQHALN
PI3Kα, sequence (P27986 whole entry partner): as the sequence (P27986 whole entry partner) above

Consider `COc1ncc(-c2ccc3ncnc(N4CCC5(CC4)CN(C(=O)/C=C/C(C)=O)C5)c3c2)cc1NS(=O)(=O)c1ccc(F)cc1` [Example 161, (E)-4-fluoro-N-(2-methoxy-5-(4-(2-(4-oxopent-2-enoyl)-2,7-diazaspiro[3.5]nonan-7-yl)quinazolin-6-yl)pyridin-3-yl)benzenesulfonamide], for which the IC50 turned out to be 0.82 nM at PI3Kα (Table 4); 9.9 nM at PI3Kδ (Table 4); 284 nM at KRAS^G12C-SOS1; 67.8 nM in experiment [1]; 145 nM in experiment [2].
`COc1ncc(-c2ccc3ncnc(N4CCN(C(=O)/C=C/C(C)=O)CC4)c3n2)cc1NS(=O)(=O)c1c(F)cccc1Cl` [Example 225, (E)-2-chloro-6-fluoro-N-(2-methoxy-5-(4-(4-(4-oxopent-2-enoyl)piperazin-1-yl)pyrido[3,2-d]pyrimidin-6-yl)pyridin-3-yl) benzene-sulfonamide]: the IC50 on PI3Kα (Table 4) was 0.5 nM; on PI3Kδ (Table 4), 8.9 nM; at KRAS^G12C-SOS1, 110 nM; in experiment [1] it was 15.6 nM; in experiment [2], 34.9 nM.
For `COc1ncc(-c2ccc3ncnc(C4=CCN(C(=O)/C=C/C(C)=O)CC4)c3c2)cc1NS(=O)(=O)c1ccc(F)cc1F` [Example 198, (E)-2,4-difluoro-N-(2-methoxy-5-(4-(1-(4-oxopent-2-enoyl)-1,2,3,6-tetrahydropyridin-4-yl)quinazolin-6-yl)pyridin-3-yl)benzenesulfonamide], the IC50 was found to be 1.1 nM on PI3Kα (Table 4); 13.3 nM on PI3Kδ (Table 4); 133 nM at KRAS^G12C-SOS1; 8.7 nM in experiment [1]; 22.1 nM in experiment [2].
With `COc1ncc(-c2ccc3ncnc(C4CCN(C(=O)/C=C/C(C)=O)CC4)c3c2)cc1NS(=O)(=O)c1ccccc1F` [Example 204, (E)-2-fluoro-N-(2-methoxy-5-(4-(1-(4-oxopent-2-enoyl)piperidin-4-yl)quinazolin-6-yl)pyridin-3-yl)benzenesulfonamide], the IC50 at PI3Kα (Table 4) was 3.3 nM; on PI3Kδ (Table 4) it was 17 nM; at KRAS^G12C-SOS1, 306 nM; in experiment [1] it was 115 nM; in experiment [2], 47.1 nM.
Turning to `COc1ncc(-c2ccc3ncnc(N4C[C@@H](C)N(C(=O)/C=C/C(C)=O)C[C@@H]4C)c3c2)cc1NS(=O)(=O)c1c(F)cccc1F` [Example 51, N-(5-(4-((2S,5R)-2,5-dimethyl-4-((E)-4-oxopent-2-enoyl)piperazin-1-yl)quinazolin-6-yl)-2-methoxypyridin-3-yl)-2,6-difluorobenzene-sulfonamide], the IC50 on PI3Kα (Table 2) was 5.6 nM; on PI3Kδ (Table 2), 19.2 nM; on KRAS^G12C-SOS1, 942 nM; in experiment [1], 50.7 nM; in experiment [2], 61 nM.
With `COc1ncc(-c2ccc3ncnc(C4=CCN(C(=O)/C=C/C(C)=O)CC4)c3c2)cc1NS(=O)(=O)c1sc(C)nc1C` [Example 199, (E)-N-(2-methoxy-5-(4-(1-(4-oxopent-2-enoyl)-1,2,3,6-tetrahydropyridin-4-yl)quinazolin-6-yl)pyridin-3-yl)-2,4-dimethylthiazole-5-sulfonamide], the IC50 at PI3Kα (Table 4) was 1.5 nM; on PI3Kδ (Table 4), 12 nM; at KRAS^G12C-SOS1 it was 176 nM; in experiment [1] it was 41.1 nM; in experiment [2], 21.7 nM.
Turning to `COc1ncc(-c2ccc3ncnc(N4C[C@@H](C)N(C(=O)/C=C/C(C)=O)C[C@@H]4C)c3c2)cc1NS(=O)(=O)c1ccc(F)cc1F` [Example 15, N-(5-(4-((2S,5R)-2,5-dimethyl-4-((E)-4-oxopent-2-enoyl)piperazin-1-yl)quinazolin-6-yl)-2-methoxypyridin-3-yl)-2,4-difluorobenzenesulfonamide], the IC50 is 10.2 nM at PI3Kα (Table 1); 130 nM at PI3Kδ (Table 1); 558 nM at KRAS^G12C-SOS1; 71.1 nM in experiment [1]; 62.1 nM in experiment [2].
On to `COc1ncc(-c2ccc3ncnc(N4CCN(C(=O)/C=C/C(C)=O)CC4)c3c2)cc1NS(=O)(=O)c1cc(F)ccc1F` [Example 94, (E)-2,5-difluoro-N-(2-methoxy-5-(4-(4-(4-oxopent-2-enoyl)piperazin-1-yl)quinazolin-6-yl)pyridin-3-yl)benzenesulfonamide], for which the IC50 came out at 11 nM on PI3Kα (Table 2); 56.7 nM on PI3Kδ (Table 2); 189 nM on KRAS^G12C-SOS1; 65.9 nM in experiment [1]; 65.2 nM in experiment [2].
In the same order, the values of `COc1ncc(-c2ccc3ncnc(N4CCN(C(=O)/C=C/C(C)=O)C[C@@H]4C)c3c2)cc1NS(=O)(=O)c1c(F)cccc1F` [Example 46, (S,E)-2,6-difluoro-N-(2-methoxy-5-(4-(2-methyl-4-(4-oxopent-2-enoyl)piperazin-1-yl)quinazolin-6-yl)pyridin-3-yl) benzenesulfonamide] are 1.7 nM, 36.3 nM, 166 nM, 91.9 nM and 27.8 nM.
For the compound `COc1ncc(-c2ccc3ncnc(C4CCN(C(=O)/C=C/C(C)=O)CC4)c3n2)cc1NS(=O)(=O)c1sc(C)nc1C` [Example 230, (E)-N-(2-methoxy-5-(4-(1-(4-oxopent-2-enoyl)piperidin-4-yl)pyrido[3,2-d]pyrimidin-6-yl)pyridin-3-yl)-2,4-dimethylthiazol-5-sulfonamide], the IC50 on PI3Kα (Table 4) was 2.6 nM; at PI3Kδ (Table 4) it was 4.7 nM; at KRAS^G12C-SOS1, 493 nM; in experiment [1], 24.2 nM; in experiment [2], 26.7 nM.
Take `COc1ncc(-c2ccc3ncnc(N4CCN(C(=O)/C=C/C(C)=O)CC4)c3c2)cc1NS(=O)(=O)c1ncc(Cl)s1` [Example 165, (E)-5-chloro-N-(2-methoxy-5-(4-(4-(4-oxopent-2-enoyl)piperazin-1-yl)quinazolin-6-yl)pyridin-3-yl)thiazole-2-sulfonamide]: the IC50 at PI3Kα (Table 4) came to 1.2 nM; on PI3Kδ (Table 4), 12 nM; on KRAS^G12C-SOS1 it was 362 nM; in experiment [1] it was 250 nM; in experiment [2], 171 nM.
In the case of `COc1ncc(-c2ccc3ncnc(C4CCN(C(=O)/C=C/C(C)=O)CC4)c3c2)cc1NS(=O)(=O)c1c(F)cccc1Cl` [Example 206, (E)-2-chloro-6-fluoro-N-(2-methoxy-5-(4-(1-(4-oxopent-2-enoyl)piperidin-4-yl)quinazolin-6-yl)pyridin-3-yl) benzenesulfonamide], the IC50 at PI3Kα (Table 4) worked out at 3.9 nM; on PI3Kδ (Table 4), 15 nM; on KRAS^G12C-SOS1 it was 188 nM; in experiment [1], 21 nM; in experiment [2] it was 9.5 nM.
Take `COc1ncc(-c2ccc3ncnc(C4CCN(C(=O)/C=C/C(C)=O)CC4)c3c2)cc1NS(=O)(=O)c1c(F)cccc1F` [Example 205, (E)-2,6-difluoro-N-(2-methoxy-5-(4-(1-(4-oxopent-2-enoyl)piperidin-4-yl)quinazolin-6-yl)pyridin-3-yl) benzenesulfonamide]: the IC50 at PI3Kα (Table 4) is 1.3 nM; on PI3Kδ (Table 4), 9 nM; at KRAS^G12C-SOS1, 369 nM; in experiment [1] it was 78.9 nM; in experiment [2], 15.2 nM.
On to `COc1ncc(-c2ccc3ncnc(N4CCN(C(=O)/C=C/C(C)=O)C[C@@H]4C)c3c2)cc1NS(=O)(=O)c1c(F)cc(F)cc1F` [Example 154, (S,E)-2,4,6-trifluoro-N-(2-methoxy-5-(4-(2-methyl-4-(4-oxopent-2-enoyl)piperazin-1-yl)quinazolin-6-yl)pyridin-3-yl)benzenesulfonamide], for which the IC50 at PI3Kα (Table 4) turned out to be 0.54 nM; on PI3Kδ (Table 4), 13.8 nM; at KRAS^G12C-SOS1, 183 nM; in experiment [1], 28.8 nM; in experiment [2] it was 61.6 nM.
With `CCCC(=O)/C=C/C(=O)N1CCN(c2ncnc3ccc(-c4cnc(OC)c(NS(=O)(=O)c5ccc(F)cc5F)c4)cc23)CC1` [Example 17, (E)-2,4-difluoro-N-(2-methoxy-5-(4-(4-(4-oxohept-2-enoyl)piperazin-1-yl)quinazolin-6-yl)pyridin-3-yl)benzenesulfonamide], the IC50 at PI3Kα (Table 1) was 2.3 nM; on PI3Kδ (Table 1) it was 31 nM; at KRAS^G12C-SOS1, 313 nM; in experiment [1], 87.9 nM; in experiment [2], 53.3 nM.
As for `COc1ncc(-c2ccc3ncnc(N4CCN(C(=O)/C=C/C(C)=O)[C@H](C)C4)c3n2)cc1NS(=O)(=O)c1ccccc1F` [Example 228, (R,E)-2-fluoro-N-(2-methoxy-5-(4-(3-methyl-4-(4-oxopent-2-enoyl)piperazin-1-yl)pyrido[3,2-d]pyrimidin-6-yl)pyridin-3-yl)benzene-sulfonamide], the IC50 on PI3Kα (Table 4) turned out to be 2.8 nM; at PI3Kδ (Table 4), 15.9 nM; on KRAS^G12C-SOS1, 294 nM; in experiment [1], 34 nM; in experiment [2], 40.3 nM.

Usually IC50 stands for the midpoint of a concentration-inhibition curve.
